What was measured:
[1] = tested on: isolated rings of aortae; test: Aortic ring relaxation; design: species or system rat; settings: for EC50: Rattus norvegicus, intact aortic rings contracted with phenylepinephrine, mean, S.D., read-out: EC50 for relaxation
Procedure: Isolated rings of aortae from male Sprague-Dawley rats (250–300 g) were prepared for isometric tension measurements and were equilibrated for 1 h at an optimal resting tension of 10 mN. Tissues were contracted submaximally with 0.3 µM phenylepinephrine, and after 10–15 m cumulative concentration-response curves for SERMs (0.01–30 µM) were obtained. Some aortic ring preparations were denuded of the endothelium, or were treated with 100 µM L-NAME, prior to assessment of SERM-induced relaxation responses.

[2] = tested on: hippocampal slices from 16-month old male 3×Tg mice; test: LTP in CA1 of hippocampal slices after theta burst stimulation; design: species or system mouse; settings: hippocampal slices from C57Bl/6 mice; 100 nM; absence of DMA
Procedure: LTP in the CA1 field of the hippocampus is a well-studied cellular model for learning and memory. […] At 16 months, an advanced age at which Alzheimer's-like neuropathology is well developed in these animals, studies on LTP have not previously been reported. Nevertheless, we observed a robust, reproducible deficit in LTP in these aged transgenic mice, with field excitatory post-synaptic potentials (fEPSP) showing an end fEPSP of 97.0±6.4% of baseline at 45 min post-TBS, compared to 134.7±10.3% observed in the wild type (WT) transgenic background controls (Fig. 3A,B).
Figure 3 Reversal of LTP deficit in aged 3×Tg mice by SERMs is GPR30 dependent. LTP was measured after TBS in the CA1 region of hippocampal sections from 16 month male 3×Tg mice or WT controls. Test compounds (SERMs 100 nM; G15 100 nM) were added 30 min prior to TBS. […] (C) Secondary analysis of theta bursts indicate action both during induction and stabilization of LTP, through a GPR30 dependent mechanism.
All experiments used 16-month old male 3×Tg transgenic or age-matched WT background controls. For electrophysiology, mice were rapidly decapitated, and brains were removed into an ice-cold aCSF solution (in mM: NaCl 124, KCl 3.0, KH2PO4 1.25, NaHCO3 25.7, D-glucose 10, L-ascorbate 2.0, MgSO4 2.5, and CaCl2 3.3) and sectioned on a tissue chopper into 400 µm sections. Slices were transported to a 37°C solution of aCSF, continuously bubbled with 95% O2/5% CO2, and allowed to recover at least 60 min before experimentation. After placement of a stimulation electrode in the Schaffer commissural fibers and recording electrodes with 2 M NaCl solution into the stratum radiatum of the CA1 area, stimulus intensity was set to evoke submaximal fEPSP and continuously monitored at 20 s intervals for at least 15 min to establish a stable baseline. SERMs (100 nM) and G15 (100 nM) were prepared fresh in perfusate and started at least 30 min before LTP induction to reach a new baseline after enhancement of basal synaptic transmission was observed. […] Resulting fEPSP was monitored at 20 s intervals for ∼60 min post TBS.

| SMILES | EC50 [1] [µM] | efficacy (maximal relaxation) ([1]; intact aortic rings) [% relaxation] | effect on LTP, compound alone [2] | maximal relaxation response, comparison ([1]; intact aortic rings) |
| --- | --- | --- | --- | --- |
| O=C(c1ccc(OCCN2CCCCC2)cc1)c1c(-c2ccc(O)cc2)sc2cc(O)ccc12 [raloxifene, Raloxifene] | 4 ± 2.9 | ~100 |  |  |
| Brc1cc2c(cc1[C@@H]1Nc3ccccc3[C@@H]3C=CC[C@@H]31)OCO2 [G15] |  |  | without effect |  |
| COc1ccc(-c2sc3cc(O)ccc3c2Oc2ccc(OCCN3CCCCC3)cc2)cc1 [arzoxifene, Arzoxifene] | 3.3 ± 2.5 |  |  | significantly less than those for DMA and raloxifene |

— publication PMC3745399, “An NO Donor Approach to Neuroprotective and Procognitive Estrogen Therapy Overcomes Loss of NO Synthase Function and Potentially Thrombotic Risk” (PLoS ONE, 2013)
